Residues, ends and D or L forms follow the SMILES beside them. *: point of attachment. X1 = CCOC(=O)/C=C/[C@H](CC(C)C)N* A value given as a limit tells only on which side of the number the result lay.

The series can be described thus: Half life in human plasma. The class given is ADME, cell-free.
The molecule `CCOC(=O)/C=C/[C@H](CC(C)C)NC(=O)C[C@@H]1NC(=O)[C@H](CO)NC(=O)[C@H](C(C)C)NC(=O)[C@H](Cc2ccccc2)NC1=O` (cyclo(D(X1)FVS)) had a half-life of over 6 h.

Molecule `CCOC(=O)/C=C/[C@H](CC(C)C)NC(=O)CC[C@@H]1NC(=O)[C@H](CC(C)C)NC(=O)[C@H](CC(C)C)NC(=O)[C@H](Cc2ccccc2)NC1=O` (cyclo(E(X1)FLL)) yielded a half-life of over 6 h.

`CCOC(=O)/C=C/[C@H](CC(C)C)NC(=O)C[C@@H]1NC(=O)[C@H](CC(C)C)NC(=O)[C@H](CC(C)C)NC(=O)[C@H](Cc2ccccc2)NC1=O` (cyclo(D(X1)FLL)) returned a half-life of over 6 h.

The term half-life denotes how long it takes for the measured level to halve. A higher half-life goes with slow loss.
